Key:
ccd8 rice mutant (d10) = test: Rice tillering assay; assay type: in vivo, rice (Oryza sativa L.); details: 2 μM through nutrient solution, supplied daily, tillers counted up to 12 days
Description: Rice seeds were surface sterilized with 2% sodium hypochlorite. The seeds were allowed to germinate in a Petri dish on a moistened filter paper. In the meanwhile bottom of 1.5 ml eppendorf tube was cut and filled with 0.6% phyto-agar. One pre-germinated seed was planted in the center of the tube on solid phytoagar and this tube was fitted in the cap of 10 ml plastic tube. The 10 ml tube was filled with modified Hoagland nutrient solution. After two weeks of planting, the compound of formula IA (2 μM) was added through nutrient solution to half of the tubes of each rice cultivars/mutants and the remaining half were kept as control. The nutrient solution with or without the compound of formula IA was supplied daily. Number of tillers per plant was counted at 24 hours interval up to 12 days of carlactone application.

Striga hermonthica seeds = test: Striga seed germination assay; assay type: in vivo; details: concentration of 3.3 μM; positive control, same conditions
Description: Striga Seed Germination Assay Pre-conditioning of Striga hermonthica seeds was carried out in a first step to see the effect of germination stimulants. For this purpose clean Striga seeds were surface sterilized with 2% sodium hypochlorite in sterile water containing 0.4% of Tween-20. About 50 to 100 sterilized seeds were spread on 9-mm diameter glass fibre filter paper discs. Twelve of these discs were placed in a 9-cm diameter Petri-dish on sterilized Whatman filter paper, moistened with 3.0 ml sterilized water. After sealing with parafilm, the Petri-dishes were placed in darkness in an incubator at 30° C. After 10 days of incubation, the discs with preconditioned seeds were supposed to be ready to test germination stimulant. Surplus moisture was evaporated from each petri dish in laminar flow cabinet. The dry discs were then placed in another Petri-dish (six per Petri-dish) containing a filter paper ring (outer diameter 9 cm, inner diameter 8 cm) moistened with 0.9 ml water. Various concentration of the compound of formula IA were applied (50 μl per disc) to triplicate discs. GR24, a synthetic strigolactone analogue, was applied as positive control. Subsequently, the Striga seeds were incubated in darkness at 30° C. for another 48 hours and germination (seeds with radicle protruding through the seed coat) scored with the help of a binocular microscope.

SMILES | tiller number (ccd8 rice mutant (d10)) | germination activity (Striga hermonthica seeds) [%]
CC1=CC(O/C=C(C)\C=C\C2=C(C)CCCC2(C)C)OC1=O (centres unmarked) [Compound IA] | reduction of tiller number | –
CC1CC(O/C=C2/C(=O)OC3c4ccccc4CC23)OC1=O (centres unmarked) [GR24] | – | ~50
